{"source": "patent US20070117852A1", "about": "“(Hetero)cyclyl carboxanilides for controlling harmful fungi” (priority 2003, published 2007)", "tested_on": "brown rust of wheat (Puccinia recondita)", "experiment": "Protective treatment against brown rust of wheat (plants sprayed the day before inoculation)", "type": "in vivo, Puccinia recondita on wheat seedlings cultivar \"Kanzler\"", "settings": "63 ppm active compound, assessed visually after a further 7 days in greenhouse, untreated 90", "method": "The active compounds were prepared as a stock solution comprising 0.25% by weight of active compound in acetone or dimethyl sulfoxide (DMSO). 1% by weight of the emulsifier Uniperol® EL (wetting agent having emulsifying and dispersant action based 10 on ethoxylated alkylphenols) was added to this solution, and the mixture was diluted with water to the desired concentration.\nLeaves of potted wheat seedlings of the cultivar “Kanzler” were sprayed to runoff point with an aqueous suspension having the concentration of active compound stated below. The next day, the treated plants were dusted with spores of brown rust of wheat (Puccinia recondita). The plants were then placed in a chamber with high atmospheric humidity (90 to 95%), at 20-22° C., for 24 hours. During this time, the spores germinated and the germinal tubes penetrated into the leaf tissue. The next day, the test plants were returned into the greenhouse and cultivated at temperatures between 20 and 22° C. and at 65 to 70% relative atmospheric humidity for a further 7 days. The extent of the rust development on the leaves was then determined visually.", "data": [{"smiles": "CC(=NOCc1ccccc1)C(C)Oc1ccccc1NC(=O)c1cccnc1Cl", "note": "(stereo not shown) [IA-1, 2-Chloro-N-(2-(2-benzyloxyimino-1-methyl-n-propoxy)phenyl)nicotinamide]", "values": [{"measurement": "Infection at 63 ppm (% of leaf area)", "value": "10 % of leaf area"}]}]}
